Measurements published in patent US11702428B2, “Chemical compounds as inhibitors of interleukin-1 activity” (Genentech, Inc., priority 2017, dated 2023).
pIC50: −log10 of the molar value. Like-named read-outs stand apart in the source and are kept apart here.

Columns and labels:
NLRP3 inflammasome [1] = target: T1, NLRP3 inflammasome (Homo sapiens, UniProt Q96P20); assay: NLRP3 inflammasome activation assay in PBMCs (LPS priming, nigericin), IL-1β by ELISA; assay type: cell-based; design: Human peripheral blood mononuclear cells (PBMCs); host or cells: primary human PBMCs from healthy donors; conditions: LPS, nigericin, read-out: PBMC IL-1β IC50
Experimental: (§1) Some of the following assays were used to determine the inhibitory activity of the compounds on the NLRP3 inflammasome using a common inflammasome activation stimuli-nigericin.
Human peripheral blood mononuclear cells (PBMCs), consisting of lymphocytes (T, B and NK cells), monocytes and dendritic cells, were freshly isolated from human peripheral blood from healthy donors. Cells were obtained through an IRB approved donor program by iXCells Biotechnologies where all the donors were tested for bacterial and viral infections. Cells were purified from peripheral blood using ficoll gradient centrifugation.
(§2) Cells were then stimulated with 10 uM Nigericin (Sigma Aldrich; InvivoGen) for 1.5 h. Plates were centrifuged at 1,500 rpm for 3 minutes to pellet cells and supernatant was transferred into new plates for subsequent experiments.
(§3) For ELISA assays cells were seeded into 96-well plates. Post study, supernatants were removed and the levels of mature IL-1β, IL-18 and TNFα (Quantikine ELISA, R&D systems) were measured in cell conditioned media by ELISA according to manufacturer's instructions.

TNFα = TNFα levels of LPS and nigericin stimulated cells (counter-screen); assay type: cell-based, human
Experimental: as §3
TNFα levels of LPS and nigericin stimulated cells is measured by HTRF assay (Cisbio, Bedford, Mass.). […] Measuring TNFalpha production also serves as a technical counter-screen to eliminate compounds that interfere with the HTRF reagents. Thus compounds that inhibit both IL-1β and TNFα levels are triaged for either being non-selective for inflammasome or interfering with the HTRF readout.

[2] = test system: LPS and nigericin stimulated cells; assay: cells; assay type: cell-based; conditions: Homo sapiens, read-out: CTG protective IC50
Experimental: Viability of compound treated cells is measured using CellTiter-Glo® assay (Promega, Madison, Wis.) that measures the ATP content of cells which is proportional to the number of live cells within a well. This is a counter-screen to establish that the reduction of IL-1β levels in LPS and nigericin stimulated and compound treated cells is not due to cytotoxicity, but rather through the inhibition of the inflammasome pathway. Compounds inhibiting NRLP3 inflammasome activation ultimately increase the viability of LPS and nigericin stimulated cells by blocking NLRP3 mediated pyroptosis that would otherwise lead to cell lysis.

[3] = Human microsomal stability (Eh); assay type: in vitro ADME; conditions: hepatic extraction ratio; 0.5 mg/mL microsomal protein, 1 μM, NADPH; liver blood flow 20.7 mL/min/kg
Experimental: The stock solutions of test article and positive control were prepared at a concentration of 10 mM using DMSO as diluents. All stock solutions were then diluted to working concentrations at 0.25 mM with 70% acetonitrile. The cofactor used in this study was NADPH regenerating system, that was composed of 6.5 mM NADP, 16.5 mM G-6-P, 3 U/mL G-6-P D. The quench reagent was consisted of acetonitrile containing tolbutamide and propanolol (serve as internal standard). Incubation mixtures containing 0.5 mg/mL liver microsomal protein and […] test article/positive control in 100 mM potassium phosphate buffer.
The 0-minute samples were prepared by addition of an 80 μL aliquot of each incubation mixture to 300 μL quench reagent to precipitate proteins. The samples were vortexed, and then a 20 μL aliquot of the NADPH regenerating system was added in. The reaction was initiated by addition of 80 μL of the NADPH regenerating system to 320 μL of each incubation mixture. The final incubation conditions achieved in 400 μL are: 0.5 mg/mL microsomal protein, 1 μM test article/positive control, 1.3 mM NADP, 3.3 mM glucose 6 phosphate, 0.6 U/mL glucose 6 phosphate dehydrogenase. The mixtures were incubated in a 37° C. water bath with gentle shaking. A 100 μL aliquot of each mixture was removed at 10, 30, 90 minutes to a clean 96-well plate which contains 300 μL quench reagent to precipitate proteins, and centrifuged (4000×g, 10 min). 80 μL of supernatant are taken into 96-well assay plates pre-added with 160 μL ultrapure water, and then analyzed by LC-MS/MS. Hepatic extraction ratio (Eh) values were calculated from measured in vitro clearance assuming a human liver blood flow of 20.7 mL/min/kg. Eh values of <0.3 are indicative of compounds with favorable metabolic stability.

NLRP3 inflammasome [4] = target: T1, NLRP3 inflammasome; assay: NLRP3 inflammasome activation assay in Kupffer cells (LPS priming, nigericin), IL-1β/IL-18 by ELISA; assay type: cell-based; conditions: KCs; LPS, nigericin; read-out: KC IL-1β IC50
Description: as §1
Human Kupffer cells (KCs), specialized liver macrophages residing in […], were obtained by gradient isolation from liver specimens harvested post-mortem by Samsara Sciences. Cells were obtained through an IRB approved donor program by Samsara Sciences and all donors tested negative for bacterial and viral infections.
as §2, §3

Pharmacokinetics in mice = assay type: in vivo, CD-1 Mice; conditions: for Cmax / clearance / half-life / AUC(0-t) / Vd: mouse, plasma; for AUC(0-t): read-out: AUC 0-24 hr; for Vd: read-out: Vz
Experimental: The intravenous dosing solutions were administered at 1 mg/kg and were made by dissolving the test article into the formulations shown below. The oral dosing suspensions or solutions were administered at 10 mg/kg and were made by dissolving the test article in the formulations shown below. Blood samples were collected into tubes containing either K2EDTA or sodium heparin and kept chilled on ice block or wet ice immediately following collection and during processing. After centrifugation, the resulting plasma samples were stored in a freezer at −80° C. until samples were analyzed. Pharmacokinetic parameters were determined following measurement of compound concentrations in plasma using standard bioanalytical methods at timepoints ranging from 0 to 24 hours.

[5] = LPS and nigericin stimulated cells, CellTiter-Glo
[6] = Female CD-1 Mice, PO, 10 mg/kg, 0.5% MC, 0.25% Tween 80
[7] = Male CD-1 Mice, PO, 10 mg/kg, 0.5% MC

T1 sequence (Q96P20 whole entry): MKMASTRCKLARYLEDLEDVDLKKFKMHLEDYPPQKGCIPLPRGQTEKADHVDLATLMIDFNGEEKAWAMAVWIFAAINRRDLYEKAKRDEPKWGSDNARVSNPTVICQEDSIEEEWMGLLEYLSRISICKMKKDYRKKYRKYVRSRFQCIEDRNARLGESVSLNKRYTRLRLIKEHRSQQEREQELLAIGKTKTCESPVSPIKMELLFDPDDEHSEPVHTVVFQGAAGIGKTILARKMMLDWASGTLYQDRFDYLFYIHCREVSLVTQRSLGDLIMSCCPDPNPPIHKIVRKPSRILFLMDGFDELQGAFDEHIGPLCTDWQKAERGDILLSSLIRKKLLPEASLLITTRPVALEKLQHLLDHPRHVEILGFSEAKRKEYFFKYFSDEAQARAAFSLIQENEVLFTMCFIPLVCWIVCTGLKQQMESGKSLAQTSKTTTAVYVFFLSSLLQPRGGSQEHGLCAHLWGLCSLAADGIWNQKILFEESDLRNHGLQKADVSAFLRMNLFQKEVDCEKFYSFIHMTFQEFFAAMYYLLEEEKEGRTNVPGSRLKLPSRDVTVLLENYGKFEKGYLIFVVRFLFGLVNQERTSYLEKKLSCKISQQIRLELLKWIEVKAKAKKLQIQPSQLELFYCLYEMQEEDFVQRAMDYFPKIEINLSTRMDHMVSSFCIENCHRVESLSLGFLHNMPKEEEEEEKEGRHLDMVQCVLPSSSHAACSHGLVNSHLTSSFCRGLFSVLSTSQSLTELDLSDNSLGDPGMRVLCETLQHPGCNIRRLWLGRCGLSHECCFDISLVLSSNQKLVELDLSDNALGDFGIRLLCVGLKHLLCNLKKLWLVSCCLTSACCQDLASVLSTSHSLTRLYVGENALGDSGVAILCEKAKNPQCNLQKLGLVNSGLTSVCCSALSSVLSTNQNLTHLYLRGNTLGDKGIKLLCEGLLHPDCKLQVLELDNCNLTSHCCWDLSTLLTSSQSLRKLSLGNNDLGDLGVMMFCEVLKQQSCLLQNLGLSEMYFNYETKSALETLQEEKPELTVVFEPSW

Cc1c2c(c(NC(=O)NS(=O)(=O)c3cnn4c3OCCC4)c3c1CCC3)CCC2
pIC50 (NLRP3 inflammasome [1]): 6.00 to 7.00
TNFα IC50 (PBMC or KC) (TNFα): No Curve
pIC50 [2, 5]: 6.00 to 7.00

O=C(Nc1c2c(cc3c1CCC3)CCC2)NS(=O)(=O)c1cnn2c1NCCC2
Human Microsomal Stability (Eh) [3]: 0.2
pIC50 (NLRP3 inflammasome [1]): > 7.00
pIC50 (NLRP3 inflammasome [4]): > 7.00
pIC50 [2, 5]: > 7.00

CN(C)C1COc2c(S(=O)(=O)NC(=O)Nc3c4c(cc5c3CCC5)CCC4)cnn2C1 (centres unmarked)
Human Microsomal Stability (Eh) [3]: 0.2
pIC50 [2]: > 7.00

CC1COc2c(S(=O)(=O)NC(=O)Nc3c4c(cc5c3CCC5)CCC4)cnn2C1 (centres unmarked)
Human Microsomal Stability (Eh) [3]: 0.4
pIC50 (NLRP3 inflammasome [1]): > 7.00
pIC50 (NLRP3 inflammasome [4]): > 7.00
pIC50 [2, 5]: > 7.00

O=C(Nc1c2c(cc3c1CCC3)CCC2)NS(=O)(=O)c1cc2n(n1)CCOC2
pIC50 (NLRP3 inflammasome [1]): 6.00 to 7.00
TNFα IC50 (PBMC or KC) (TNFα): No Curve
pIC50 [2, 5]: 6.00 to 7.00

COC1CN([C@H]2COc3c(S(=O)(=O)NC(=O)Nc4c5c(cc6c4CCC6)CCC5)cnn3C2)C1 [E]
Bioavailability (% F) (Pharmacokinetics in mice; [6]): 53 % F
Cmax (Pharmacokinetics in mice; Female CD-1 Mice, IV, 1 mg/kg): 2830 ng/mL
clearance (Pharmacokinetics in mice; Female CD-1 Mice, IV, 1 mg/kg): 10.7 mL/min/kg
half-life (Pharmacokinetics in mice; Female CD-1 Mice, IV, 1 mg/kg): 1.6 h
AUC(0-t) (Pharmacokinetics in mice; Female CD-1 Mice, IV, 1 mg/kg): 1570 ng·h/mL
Vd (Pharmacokinetics in mice; Female CD-1 Mice, IV, 1 mg/kg): 1.47 L/kg
Cmax (Pharmacokinetics in mice; [6]): 8620 ng/mL
half-life (Pharmacokinetics in mice; [6]): 1.9 h
AUC(0-t) (Pharmacokinetics in mice; [6]): 8270 ng·h/mL

CCO[C@@H]1COc2c(S(=O)(=O)NC(=O)Nc3c4c(cc5c3CCC5)CCC4)cnn2C1
pIC50 (NLRP3 inflammasome [1]): 6.00 to 7.00
pIC50 [2, 5]: 6.00 to 7.00

C[C@@H]1COc2c(S(=O)(=O)NC(=O)Nc3c4c(cc5c3CCC5)CCC4)cnn2C1
pIC50 (NLRP3 inflammasome [1]): > 7.00
pIC50 [2, 5]: > 7.00

C#CCOC1COc2c(S(=O)(=O)NC(=O)Nc3c4c(cc5c3CCC5)CCC4)cnn2C1 (centres unmarked)
pIC50 (NLRP3 inflammasome [1]): > 7.00
pIC50 [2, 5]: > 7.00

CN(CC1COc2c(S(=O)(=O)NC(=O)Nc3c4c(cc5c3CCC5)CCC4)cnn2C1)C(=O)OC(C)(C)C (centres unmarked)
pIC50 (NLRP3 inflammasome [1]): 6.00 to 7.00
pIC50 [2, 5]: 6.00 to 7.00

O=C(Nc1c2c(cc3c1CCC3)CCC2)NS(=O)(=O)c1cnn2c1OCC(F)C2 (centres unmarked) [drawing 517]
pIC50 (NLRP3 inflammasome [1]): 6.00 to 7.00
pIC50 [2, 5]: > 7.00

CC(C)OC1COc2c(S(=O)(=O)NC(=O)Nc3c4c(cc5c3CCC5)CCC4)cnn2C1 (centres unmarked)
pIC50 (NLRP3 inflammasome [1]): 6.00 to 7.00
pIC50 [2, 5]: > 7.00

O=C(Nc1c2c(cc3c1CCC3)CCC2)NS(=O)(=O)c1cnn2c1OCC1(CC1)C2 [B]
Bioavailability (% F) (Pharmacokinetics in mice; [7]): 100 % F
Cmax (Pharmacokinetics in mice; Male CD-1 Mice, IV, 1 mg/kg): 11700 ng/mL
clearance (Pharmacokinetics in mice; Male CD-1 Mice, IV, 1 mg/kg): 0.833 mL/min/kg
half-life (Pharmacokinetics in mice; Male CD-1 Mice, IV, 1 mg/kg): 1.9 h
AUC(0-t) (Pharmacokinetics in mice; Male CD-1 Mice, IV, 1 mg/kg): 20200 ng·h/mL
Vd (Pharmacokinetics in mice; Male CD-1 Mice, IV, 1 mg/kg): 0.13 L/kg
Cmax (Pharmacokinetics in mice; [7]): 63000 ng/mL
half-life (Pharmacokinetics in mice; [7]): 1.9 h
AUC(0-t) (Pharmacokinetics in mice; [7]): 256000 ng·h/mL

CCNC1COc2c(S(=O)(=O)NC(=O)Nc3c4c(cc5c3CCC5)CCC4)cnn2C1 (centres unmarked)
pIC50 (NLRP3 inflammasome [1]): > 7.00
pIC50 [2, 5]: > 7.00

O=C(Nc1c(C2CC2)cc(Cl)c2c1CCC2)NS(=O)(=O)c1cnn2c1OCCC2
pIC50 (NLRP3 inflammasome [1]): 6.00 to 7.00
pIC50 [2, 5]: 5.00 to 6.00
